{"source": "patent US20120003183A1", "about": "“ADDITION SALTS OF TROMETHAMINE WITH AZABIPHENYLAMINOBENZOIC ACID DERIVATIVES AS DHODH INHIBITORS” (priority 2009, published 2012)", "format_in_all_cases": "physicochemical", "key": {"[1]": {"assay": "Water-solubility test", "settings": "for Water Solubility @ 25° C. (mg/mL as acid): 25° C. (room temperature)", "experimental": "The solubility of the of Examples 1-3 in water at room temperature was determined together with the solubility of the corresponding free acids."}, "[2]": {"assay": "Dynamic Vapour Sorption (DVS) moisture sorption/desorption", "settings": "for Mass increase at 80% relative humidity (DVS): 80% RH; for Mass increase at 90% relative humidity (DVS): 90% RH; for Hygroscopicity / Hysteresis in DVS sorption/desorption: result in words", "experimental": "Dynamic Vapour Sorption (DVS) profiles were obtained using an Igasorp Hiden Isochema instrument (serial number IGA-SA-066). After an initial stabilization period, at least two isotherms (at 25° C.) were obtained for each sample: a moisture sorption from 0 to 95% relative humidity and moisture desorption from 95% relative humidity to dryness. Both isotherms were performed in 10% humidity steps, with a minimum time of 10 minutes and a maximum time of 30 minutes for each step."}, "[3]": {"assay": "Differential scanning calorimetry (DSC) thermogram, stability", "settings": "heated 30 to 350° C. at 10° C./min; result in words", "experimental": "The differential scanning calorimetry (DSC) thermograms analyses were obtained using a DSC-821 Mettler-Toledo instrument, serial number 5117423874. Samples were weighed into an aluminium pan, an aluminium lid placed on top of the sample and compressed with a brass rod. Samples were equilibrated at 30° C. and heated at 10° C./min to 350° C. The instrument was calibrated using indium and zinc standards."}}, "note": "Counter-ions that a name gives are not always drawn."}
{"smiles": "O=C(O)c1cc(C2CC2)ccc1Nc1cnc(-c2c(F)cccc2F)nc1", "note": "[Example 1, 5-cyclopropyl-2-{[2-(2,6-difluorophenyl)pyrimidin-5-yl]amino}benzoic acid, tromethamine salt]", "values": [{"measurement": "Solubility in water compared with the corresponding free acids", "setting": "[1]; result in words", "result": "Particularly good results"}, {"measurement": "Water Solubility @ 25° C. (mg/mL as acid)", "setting": "[1]", "result": 1.780, "unit": "mg/mL as acid"}, {"measurement": "Mass increase at 80% relative humidity (DVS)", "setting": "[2]; 25° C.", "result": 1.2, "unit": "%"}, {"measurement": "Mass increase at 90% relative humidity (DVS)", "setting": "[2]; 25° C.", "result": 6.1, "unit": "%"}, {"measurement": "Hygroscopicity", "setting": "[2]", "result": "not hygroscopic"}, {"measurement": "Hysteresis in DVS sorption/desorption", "setting": "[2]", "result": "no hysteresis"}, {"measurement": "Stability (polymorph conversion / decomposition) from DSC thermogram", "setting": "[3]", "result": "high stability"}]}
{"smiles": "O=C(O)c1cc(C2CC2)ccc1Nc1cnc(-c2ccccc2C(F)(F)F)nc1", "note": "[Example 2, 5-cyclopropyl-2-{[2-(2-(trifluoromethyl)phenyl)pyrimidin-5-yl]amino}benzoic acid, tromethamine salt]", "values": [{"measurement": "Water Solubility @ 25° C. (mg/mL as acid)", "setting": "[1]", "result": 0.139, "unit": "mg/mL as acid"}, {"measurement": "Mass increase at 80% relative humidity (DVS)", "setting": "[2]; 25° C.", "result": 3.4, "unit": "%"}, {"measurement": "Mass increase at 95% relative humidity (DVS)", "setting": "[2]; 95% RH, 25° C.", "result": 7.0, "unit": "%"}, {"measurement": "Hygroscopicity", "setting": "[2]", "result": "slightly hygroscopic"}, {"measurement": "Hysteresis in DVS sorption/desorption", "setting": "[2]", "result": "no hysteresis"}, {"measurement": "Stability (polymorph conversion / decomposition) from DSC thermogram", "setting": "[3]", "result": "high stability"}]}
{"smiles": "Cc1ccc(Nc2ccc(-c3cccc(F)c3F)nc2)c(C(=O)O)c1", "note": "[Example 3, 5-methyl-2-{[6-(2,3-difluorophenyl)pyridin-3-yl]amino}benzoic acid, tromethamine salt]", "values": [{"measurement": "Water Solubility @ 25° C. (mg/mL as acid)", "setting": "[1]", "result": 0.540, "unit": "mg/mL as acid"}, {"measurement": "Mass increase at 80% relative humidity (DVS)", "setting": "[2]; 25° C.", "result": 1.8, "unit": "%"}, {"measurement": "Mass increase at 90% relative humidity (DVS)", "setting": "[2]; 25° C.", "result": 5.1, "unit": "%"}, {"measurement": "Hygroscopicity", "setting": "[2]", "result": "not hygroscopic"}, {"measurement": "Hysteresis in DVS sorption/desorption", "setting": "[2]", "result": "no hysteresis"}, {"measurement": "Stability (polymorph conversion / decomposition) from DSC thermogram", "setting": "[3]", "result": "high stability"}]}
{"smiles": "O=C(O)c1cc(C2CC2)ccc1Nc1cnc(-c2c(F)cccc2F)nc1", "note": "[Example C1, 5-cyclopropyl-2-{[2-(2,6-difluorophenyl)pyrimidin-5-yl]amino}benzoic acid, reference compound]", "values": [{"measurement": "Water Solubility @ 25° C. (mg/mL as acid)", "setting": "[1]", "result": 0.030, "unit": "mg/mL as acid"}]}
{"smiles": "O=C(O)c1cc(C2CC2)ccc1Nc1cnc(-c2ccccc2C(F)(F)F)nc1", "note": "[Example C2, 5-cyclopropyl-2-{[2-(2-(trifluoromethyl)phenyl)pyrimidin-5-yl]amino}benzoic acid, reference compound]", "values": [{"measurement": "Water Solubility @ 25° C. (mg/mL as acid)", "setting": "[1]", "result": 0.003, "unit": "mg/mL as acid"}]}
{"smiles": "Cc1ccc(Nc2ccc(-c3cccc(F)c3F)nc2)c(C(=O)O)c1", "note": "[Example C3, 5-methyl-2-{[6-(2,3-difluorophenyl)pyridin-3-yl]amino}benzoic acid, reference compound]", "values": [{"measurement": "Water Solubility @ 25° C. (mg/mL as acid)", "setting": "[1]", "result": 0.007, "unit": "mg/mL as acid"}]}
